According to patent publication US9676820B2, “Method for inhibiting proliferation of high LIX1L-expressing tumor cell, and tumor cell proliferation-inhibiting peptide” (National University Corporation Hamamatsu University School …, priority 2013, dated 2017):

Columns and labels:
[1] = system: KATO-III strain; assay: Viable cell counts (Trypan blue staining), KATO-III strain; format: cell-based; settings: shRNA 2.5 μg/well, vs untreated
Method: (§1) Specifically, cells plated such that the density thereof became 1×10^4 cells/3.5 cm well for one plate (6 wells/plate) for each cell strain were cultured for one night in a culture solution having the same composition as those of the culture solutions described in the reference examples. After culturing of 1 well out of the 6 wells was completed, Trypan blue staining was performed on the 1 well, and viable cell counts were counted. The remaining 5 wells were cultured after exchanging the culture solution with a liquid mixture of a Lipofectamine (registered trademark) reagent (12.5 μL/well) and a culture solution (2 mL/well) of which the shRNA concentration became 2.5 μg/well. Then, Trypan blue staining was performed on 1 well 24 hours after the exchange of a culture medium, 1 well 48 hours after the exchange of a culture medium, and the remaining 1 well 72 hours after the exchange of a culture medium, and the viable cell counts were counted. As a control, the viable cell counts were measured (untreated) by performing the culturing similarly to the above except that a culture medium was exchanged with a culture solution to which no shRNA was added.

[2] = system: K562 strain; assay: Viable cell counts (Trypan blue staining), K562 strain; format: cell-based; settings: vs untreated
Method: as §1
(§2) Specifically, the viable cell counts were measured after culturing the cells similarly to Example 1 except that a 5 μM culture solution containing a control peptide, a peptide 1, or a peptide 2 was used instead of the culture solution (2 mL/well) of which the shRNA concentration was 2.5 μg/well. The viable cell counts were measured (untreated) by performing the culturing similarly to Example 1 using a culture solution containing no peptide 2, as a control.

[3] = system: LIX1L genes; assay: RT-PCR of LIX1L gene expression after shRNA treatment; format: cell-based, human; settings: HL-60, K562, KATO-III and OCUM-1 strains; shRNA 2.5 μg/well; after 72 hours
Method: In the RT-PCR, first, RNA was extracted and purified from the collected cells using RNeasy Mini Kit (manufactured by QIAGEN). The concentration of total RNA was measured using a spectrophotometer. A reverse transcription reaction was performed using First Strand cDNA Synthesis Kit (manufactured by Roche Life Science) for RT-PCR (AMV), for synthesizing cDNA, in 20 μL of a reaction solution containing 1 μg of total RNA and a random primer for 10 minutes at 25° C., subsequently for 45 minutes at 42° C., and then for 2 minutes at 95° C., to deactivate reverse transcriptase. In all PCRs, TaqMan (registered trademark) polymerase (manufactured by Life Technologies Ltd.) was used. […] The signal intensity of a band of LIX1L in an ethidium bromide staining image was measured using densitometry and a relative value of the signal intensity was calculated. In addition, in all quantitative PCR reactions, SYBR (registered trademark) Green I was used. Quantitative determination was performed in 25 μL of a reaction solution containing the synthesized cDNA and a LIX1L primer using an ABI PRISM 7700 Sequence detector (manufactured by Perkin-Elmer/Applied Biosystems). […]

[4] = system: HL-60 strain; assay: Viable cell counts (Trypan blue staining), HL-60 strain; format: cell-based; settings: vs untreated
Method: as §1, §2

[5] = system: OCUM-1 strain; assay: Viable cell counts (Trypan blue staining), OCUM-1 strain; format: cell-based; settings: shRNA 2.5 μg/well, vs untreated
Method: as §1

[6] = system: RPMI8226 strain; assay: Viable cell counts (Trypan blue staining), RPMI8226 strain; format: cell-based; settings: 5 μM peptide, up to 72 hours, vs untreated
Method: as §1, with “added. […]” for “added.”

[7] = system: 293 FLG; assay: MTT assay, 293 FLG cells; format: cell-based; settings: 72 hours, peptide concentrations up to 250 μM
Method: (§3) Specifically, first, cells plated in a 96-well microplate such that the density thereof became 5×10^3 cells/well were cultured for one night in a culture solution having the same composition as those in the reference examples. […] After the culturing, an MTT-containing PBS solution was added to the culture solution, and the mixture was incubated for 4 hours. Then, formazan which was generated by putting 100 μL of isopropanol (containing 34 (v/v) % of hydrochloric acid) into each of the wells was dissolved. The absorbance of each of the wells of the microplate at 570 nm was measured using a microplate reader. As controls, culturing was performed in the same manner except that no peptide was added to the strains, an MTT assay was performed thereon, and the absorbance at 570 nm was measured (untreated).
(§4) In the method for measuring the viable cell counts, cells were cultured for 3 days similarly to Example 1 except that a 25 μM (10 μM for an HL-60 strain, a K562 strain, and a U937 strain) culture solution containing a control peptide or a peptide 1 was used, and the viable cell counts were measured. As a comparison, culturing was performed similarly to the above using a culture solution containing no peptide, and the viable cell counts were measured (untreated).
(§5) In addition, in the method for performing an MTT assay, cells were cultured for 72 hours similarly to Example 2 except that a peptide to be added to a strain was set to a control peptide or a peptide 1 at 25 μM (10 μM for an HL-60 strain, a K562 strain, and a U937 strain), an MTT assay was performed thereon, and the absorbance at 570 nm was measured. As a comparison, culturing was performed similarly to the above using a culture solution containing no peptide, and the MTT assay was performed thereon (untreated).
(§6) Specifically, the cells were cultured for 72 hours similarly to Example 2 except that a peptide to be added to a cell was set to a peptide 1, 2, 5, or 6, MTT assays were performed thereon, and the absorbance at 570 nm was measured. As a comparison, culturing was performed similarly to the above using a culture solution containing no peptide, and the MTT assay was performed thereon (untreated).
(§7) Specifically, the cells were cultured for 72 hours similarly to Example 2 except that peptides to be added to cell strains were set to peptides 7 to 14, MTT assays were performed thereon, and the absorbance at 570 nm was measured. […]
(§8) Specifically, the cells were cultured for 72 hours similarly to Example 2 except that a peptide to be added to a cell strain was set to a peptide 15 or 16, an MTT assay was performed thereon, and the absorbance at 570 nm was measured. […]

[8] = system: RPMI8226 strain; assay: MTT assay, RPMI8226 strain; format: cell-based; settings: peptide 0 μM to 100 μM, 72 hours
Method: (§9) Specifically, first, cells plated in a 96-well microplate such that the density thereof became 5×10^3 cells/well were cultured for one night in a culture solution having the same composition as those in the reference examples. Thereafter, the culture solution was exchanged with 100 μL of a culture solution of which the concentration of peptides is 0 μM to 100 μM for culturing for 72 hours. After the culturing, an MTT-containing PBS solution was added to the culture solution, and the mixture was incubated for 4 hours. Then, formazan which was generated by putting 100 μL of isopropanol (containing 34 (v/v) % of hydrochloric acid) into each of the wells was dissolved. The absorbance of each of the wells of the microplate at 570 nm was measured using a microplate reader. As controls, culturing was performed in the same manner except that no peptide was added to the strains, an MTT assay was performed thereon, and the absorbance at 570 nm was measured (untreated).
(§10) Specifically, the cells were cultured for 72 hours similarly to Example 2 except that a peptide to be added to a cell strain was set to peptide 1, 3, or 4, or a control peptide, an MTT assay was performed thereon, and the absorbance at 570 nm was measured.

[9] = system: KATO-III strain; assay: MTT assay, KATO-III strain; format: cell-based; settings: peptide 0 μM to 100 μM, 72 hours
Method: as §9

[10] = system: HL-60 strain; assay: MTT assay, HL-60 strain; format: cell-based; settings: peptide 0 μM to 100 μM, 72 hours
Method: as §9, §4, §5

[11] = system: MKN45 strain; assay: MTT assay, MKN45 strain; format: cell-based; settings: 72 hours, peptide concentrations up to 250 μM
Method: as §3, §4, §5, §6, §7, §8

[12] = system: OCUM-1 strain; assay: MTT assay, OCUM-1 strain; format: cell-based; settings: peptide 0 μM to 100 μM, 72 hours
Method: as §9

[13] = system: NUGC-4 strain; assay: MTT assay, NUGC-4 strain; format: cell-based; settings: 72 hours, peptide concentrations up to 250 μM
Method: as §3, §4, §5, §6, §7, §8

[14] = system: 293 FLG/LIX1L; assay: MTT assay, 293 FLG/LIX1L cells; format: cell-based; settings: 72 hours, peptide concentrations up to 250 μM
Method: as §3, §4, §5, §6, §7, §8

[15] = system: K562 strain; assay: MTT assay, K562 strain; format: cell-based; settings: 72 hours
Method: as §9, §10, §4, §5, §6
as §6, with “that peptides” for “that a peptide”, “to” for “to a”, “cell strains were” for “cell was”, “to peptides 7 to 14,” for “to a peptide 1, 2, 5, or 6,”
Specifically, the cells were cultured for 72 hours similarly to Example 2 except that a peptide to be added to a cell strain was set to a peptide 15 or 16, an MTT assay was performed thereon, and the absorbance at 570 nm was measured. As a comparison, culturing was performed similarly to the above using a culture solution containing no peptide, and the MTT assay was performed thereon (untreated).

[16] = shRNA 2.5 μg/well, after 48 hours and 72 hours
[17] = shRNA 2.5 μg/well, until 24 hours

Question: Which results are given for “LIX1L shRNA #1: shRNA with respect to LIX1L genes; base sequence shown in FIG. 5A (DNA GAGGAGGTGTTGGCTCATTATTTTCAAGAGAAATAATGAGCCAACACCTCCTCTTTTTT)”?
Answer: viable cell counts ([1]; after 48 hours and 72 hours): decreased more clearly than that of the untreated cells; viable cell counts ([1]; until 24 hours): no particular difference; viable cell counts [2, 16]: decreased more clearly than that of the untreated cells; viable cell counts [2, 17]: no particular difference; expression of LIX1L genes (RT-PCR) [3]: hardly observed; viable cell counts [4, 16]: decreased more clearly than that of the untreated cells; viable cell counts [4, 17]: no particular difference; viable cell counts ([5]; after 48 hours and 72 hours): decreased more clearly than that of the untreated cells; viable cell counts ([5]; until 24 hours): no particular difference

Question: With “LIX1L shRNA #2: shRNA with respect to LIX1L genes; base sequence shown in FIG. 5B (DNA GAGTCCCGTGGTGCTGACTTAATTCAAGAGATTAAGTCAGCACCACGGGACTCTTTTTT)” as the substance, how does the viable cell counts ([1]; after 48 hours and 72 hours) read?
Answer: Its viable cell counts is “decreased more clearly than that of the untreated cells”.

Question: And the viable cell counts ([1]; until 24 hours)?
Answer: The viable cell counts was “no particular difference”.

Question: And the viable cell counts [2, 16]?
Answer: The viable cell counts was “decreased more clearly than that of the untreated cells”.

Question: And the viable cell counts [2, 17]?
Answer: Its viable cell counts is “no particular difference”.

Question: What about the “expression of LIX1L genes (RT-PCR)” value [3] of the same substance?
Answer: Its value is “hardly observed”.

Question: And the viable cell counts [4, 16]?
Answer: The viable cell counts was “decreased more clearly than that of the untreated cells”.

Question: What about the viable cell counts [4, 17] of the same substance?
Answer: The viable cell counts was “no particular difference”.

Question: And the viable cell counts ([5]; after 48 hours and 72 hours)?
Answer: The viable cell counts was “decreased more clearly than that of the untreated cells”.

Question: And the viable cell counts ([5]; until 24 hours)?
Answer: Its viable cell counts is “no particular difference”.

Question: What does the source list for “YGRKKRRQRRR-X-CYVTLPGGSC-NH2 (YGRKKRRQRRRXCYVTLPGGSC; ε-aminocaproic acid linker; C-terminal amide; peptide 2)”?
Answer: viable cell counts [6]: the same as those in an untreated case; cell proliferation (MTT assay, absorbance at 570 nm) [7]: not inhibited; absorbance at 570 nm (MTT assay), influence on cell proliferation [8]: no particular change in the absorbance at 570 nm; absorbance at 570 nm (MTT assay), influence on cell proliferation [9]: no particular change in the absorbance at 570 nm; absorbance at 570 nm (MTT assay), influence on cell proliferation [10]: no particular change in the absorbance at 570 nm; viable cell counts ([2]; 5 μM peptide, after 72 hours): the same as those in an untreated case; cell proliferation (MTT assay, absorbance at 570 nm) [11]: not inhibited; absorbance at 570 nm (MTT assay), influence on cell proliferation [12]: no particular change in the absorbance at 570 nm; viable cell counts ([4]; 5 μM peptide, after 72 hours): the same as those in an untreated case; cell proliferation (MTT assay, absorbance at 570 nm) [13]: not inhibited; cell proliferation (MTT assay, absorbance at 570 nm) [14]: not inhibited; cell proliferation (MTT assay, absorbance at 570 nm) ([15]; peptide concentrations up to 250 μM): not inhibited; absorbance at 570 nm (MTT assay), influence on cell proliferation ([15]; peptide 0 μM to 100 μM): no particular change in the absorbance at 570 nm
